Source: paper PMC6478789, “A chemical toolbox for the study of bromodomains and epigenetic signaling” (Nature Communications, 2019)
Where two headings read alike, the source gives them in different places.

Columns and labels:
Test in all cases: BROMOscan ligand-binding assay
[1] = molecular target: T1, ATAD2A (Homo sapiens, UniProt Q6PL18)
T1 sequence (Q6PL18 980-1092 limits assumed): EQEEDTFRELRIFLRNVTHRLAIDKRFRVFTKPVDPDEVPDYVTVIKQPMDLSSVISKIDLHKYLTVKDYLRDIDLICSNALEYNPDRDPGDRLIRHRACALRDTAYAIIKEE
Excerpt: (§1) BROMOscan is a binding assay based on the well-known KINOMEscan technology. This assay measures the binding of a DNA-tagged bromodomain to an immobilized BRD ligand. If an inhibitor is present, it will compete with the bromodomain binding to the immobilized ligand, resulting in reduction of a quantitative PCR (qPCR) signal in a dose-dependent manner.

[2] = molecular target: T2, BAZ2B (Homo sapiens, UniProt Q9UIF8)
T2 sequence (Q9UIF8 2060-2164 limits assumed): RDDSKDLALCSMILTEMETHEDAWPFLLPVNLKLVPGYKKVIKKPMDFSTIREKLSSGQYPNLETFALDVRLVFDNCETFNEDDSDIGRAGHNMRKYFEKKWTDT
Excerpt: as §1

[3] = molecular target: BRD2(1,2) (Homo sapiens, UniProt P25440)
Sequence of BRD2(1,2) (P25440 71-455 limits assumed): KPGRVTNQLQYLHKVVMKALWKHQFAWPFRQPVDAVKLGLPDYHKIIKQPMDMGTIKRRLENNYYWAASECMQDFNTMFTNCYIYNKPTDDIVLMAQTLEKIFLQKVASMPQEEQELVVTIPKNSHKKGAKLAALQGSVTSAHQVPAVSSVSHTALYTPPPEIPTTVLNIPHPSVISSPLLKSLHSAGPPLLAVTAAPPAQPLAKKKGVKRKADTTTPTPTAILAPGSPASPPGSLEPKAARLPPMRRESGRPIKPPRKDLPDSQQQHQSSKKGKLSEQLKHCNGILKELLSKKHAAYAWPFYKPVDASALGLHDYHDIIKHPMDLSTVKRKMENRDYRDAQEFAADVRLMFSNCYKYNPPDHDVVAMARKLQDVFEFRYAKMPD
Excerpt: as §1

[4] = molecular target: BRD3(1) (Homo sapiens, UniProt Q15059)
Sequence of BRD3(1) (Q15059 34-140 limits assumed): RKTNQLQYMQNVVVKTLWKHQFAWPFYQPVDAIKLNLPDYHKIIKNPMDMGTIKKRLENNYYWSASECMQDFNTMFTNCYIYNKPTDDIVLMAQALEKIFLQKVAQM
Excerpt: as §1

[5] = molecular target: BRD3(2) (Homo sapiens, UniProt Q15059)
Sequence of BRD3(2) (Q15059 306-415 limits assumed): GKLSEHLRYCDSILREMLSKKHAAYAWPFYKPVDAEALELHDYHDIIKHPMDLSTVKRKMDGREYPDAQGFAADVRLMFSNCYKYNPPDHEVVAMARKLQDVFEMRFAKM
Excerpt: as §1

[6] = molecular target: BRD4(1) (Homo sapiens, UniProt O60885)
Excerpt: as §1

[7] = molecular target: BRD4(1,2) (Homo sapiens, UniProt O60885)
Excerpt: as §1

[8] = molecular target: BRD4(2) (Homo sapiens, UniProt O60885)
Excerpt: as §1

[9] = molecular target: BRD4(fl) (Homo sapiens, UniProt O60885)
Excerpt: as §1

[10] = molecular target: T3, BRD9 (Homo sapiens, UniProt Q9H8M2)
T3 sequence (Q9H8M2 136-240 limits assumed): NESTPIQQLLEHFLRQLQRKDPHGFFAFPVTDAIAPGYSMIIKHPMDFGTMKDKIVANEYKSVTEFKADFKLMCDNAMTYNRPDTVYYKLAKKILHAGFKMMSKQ
Excerpt: as §1

[11] = molecular target: BRDT(1,2) (Homo sapiens, UniProt Q58F21)
Excerpt: as §1

[12] = molecular target: T4, BRPF1 (Homo sapiens, UniProt P55201)
T4 sequence (P55201 628-732 limits assumed): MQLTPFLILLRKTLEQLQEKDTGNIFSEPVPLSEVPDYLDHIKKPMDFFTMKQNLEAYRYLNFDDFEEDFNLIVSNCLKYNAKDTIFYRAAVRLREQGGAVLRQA
Excerpt: as §1

[13] = molecular target: CREBBP (Homo sapiens, UniProt Q92793)
Sequence of CREBBP (Q92793 1085-1192 limits assumed): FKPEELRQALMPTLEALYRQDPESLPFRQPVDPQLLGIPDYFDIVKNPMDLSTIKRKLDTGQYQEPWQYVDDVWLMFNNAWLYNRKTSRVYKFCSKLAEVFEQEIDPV
Excerpt: as §1

[14] = molecular target: T5, GCN5L2 (Homo sapiens, UniProt Q92830)
T5 sequence (Q92830 728-832 limits assumed): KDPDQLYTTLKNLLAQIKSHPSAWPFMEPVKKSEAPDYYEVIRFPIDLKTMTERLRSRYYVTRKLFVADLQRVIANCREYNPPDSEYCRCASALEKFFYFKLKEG
Excerpt: as §1

[15] = molecular target: SMARCA2 (Homo sapiens, UniProt P51531)
Sequence of SMARCA2 (P51531 1-1572 isoform P51531-2): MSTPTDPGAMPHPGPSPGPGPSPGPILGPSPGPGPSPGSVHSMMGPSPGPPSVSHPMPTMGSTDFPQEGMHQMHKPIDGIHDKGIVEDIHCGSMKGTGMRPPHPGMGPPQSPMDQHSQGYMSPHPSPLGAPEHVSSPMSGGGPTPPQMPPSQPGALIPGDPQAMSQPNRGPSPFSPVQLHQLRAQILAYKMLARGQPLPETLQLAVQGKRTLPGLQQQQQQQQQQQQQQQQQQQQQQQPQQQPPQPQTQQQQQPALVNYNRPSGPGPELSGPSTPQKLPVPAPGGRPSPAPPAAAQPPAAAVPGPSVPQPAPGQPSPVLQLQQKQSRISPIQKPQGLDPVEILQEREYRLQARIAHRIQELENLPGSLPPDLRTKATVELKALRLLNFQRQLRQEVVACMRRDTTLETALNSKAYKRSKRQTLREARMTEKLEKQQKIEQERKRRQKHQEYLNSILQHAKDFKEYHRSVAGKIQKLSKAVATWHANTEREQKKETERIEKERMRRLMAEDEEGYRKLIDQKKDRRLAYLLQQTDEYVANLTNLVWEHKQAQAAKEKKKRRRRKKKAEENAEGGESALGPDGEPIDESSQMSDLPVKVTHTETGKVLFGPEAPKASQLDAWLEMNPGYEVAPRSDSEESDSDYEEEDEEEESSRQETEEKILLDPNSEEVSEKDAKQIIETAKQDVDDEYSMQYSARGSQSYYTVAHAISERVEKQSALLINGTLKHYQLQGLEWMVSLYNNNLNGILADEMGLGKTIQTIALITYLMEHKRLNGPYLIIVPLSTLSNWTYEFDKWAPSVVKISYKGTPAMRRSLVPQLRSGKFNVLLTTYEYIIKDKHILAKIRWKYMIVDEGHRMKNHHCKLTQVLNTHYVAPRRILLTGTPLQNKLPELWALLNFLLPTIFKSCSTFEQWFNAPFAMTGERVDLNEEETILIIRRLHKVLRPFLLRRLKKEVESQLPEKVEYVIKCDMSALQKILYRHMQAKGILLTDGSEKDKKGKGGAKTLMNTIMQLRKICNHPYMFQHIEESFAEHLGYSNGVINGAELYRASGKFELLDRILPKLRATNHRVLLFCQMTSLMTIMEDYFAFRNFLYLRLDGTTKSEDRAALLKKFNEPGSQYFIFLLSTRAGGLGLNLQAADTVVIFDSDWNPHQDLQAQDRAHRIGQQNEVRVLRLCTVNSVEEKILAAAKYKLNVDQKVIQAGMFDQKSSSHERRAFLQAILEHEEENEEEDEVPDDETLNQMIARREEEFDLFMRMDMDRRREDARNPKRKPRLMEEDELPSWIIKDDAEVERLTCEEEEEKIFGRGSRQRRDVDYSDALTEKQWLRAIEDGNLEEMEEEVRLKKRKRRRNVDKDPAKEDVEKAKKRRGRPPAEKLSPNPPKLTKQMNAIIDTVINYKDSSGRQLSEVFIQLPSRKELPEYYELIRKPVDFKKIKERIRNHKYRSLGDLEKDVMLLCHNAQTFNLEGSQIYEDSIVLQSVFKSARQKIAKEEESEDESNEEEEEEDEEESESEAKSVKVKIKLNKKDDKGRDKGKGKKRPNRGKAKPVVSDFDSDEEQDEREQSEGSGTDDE
Excerpt: as §1

[16] = molecular target: T6, TAF1(2) (Homo sapiens, UniProt P21675)
T6 sequence (P21675 1519-1628 limits assumed): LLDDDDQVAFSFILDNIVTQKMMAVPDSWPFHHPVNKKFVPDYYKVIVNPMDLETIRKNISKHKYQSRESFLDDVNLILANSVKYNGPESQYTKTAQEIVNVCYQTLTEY
Excerpt: as §1

[17] = BROMOscan, BRD4(full-length,short-iso.)
[18] = KD (BROMOscan), sheet prints no unit (nM)

## COc1cc(C#N)ccc1S(=O)(=O)Nc1ccc2c(c1)cc(C)c(=O)n2C [NI 57]
[1]; ATAD2A
  Kd: > 50000 nM
[2]; BAZ2B
  Kd: 9400 nM
[3]; BRD2(1,2)
  Kd: 12 µM
[4]; BRD3(1)
  Kd: 7200 nM
[5]; BRD3(2)
  Kd: > 50000 nM
[6]; BRD4(1)
  Kd: 3.3 µM
[7]; BRD4(1,2)
  Kd: 15 µM
[8]; BRD4(2)
  Kd: > 50 µM
[9]; BRD4(full-length,short-iso.)
  Kd: 4.9 µM
[10]; BRD9
  Kd: 160 nM
[11]; BRDT(1,2)
  Kd: > 50000 nM
[12]; BRPF1
  Kd: 4 nM
[13]; CREBBP
  Kd: 13000 nM
[14]; GCN5L2
  Kd: 4100 nM
[15]; SMARCA2
  Kd: > 50000 nM
[16]; TAF1(2)
  Kd: 4.9 µM

## O=C(C=CN1[C@H]2CC[C@@H]1c1ncnc(NC3CC3)c1C2)c1ccccc1O [PFI-3 D1]
[1]; BROMOscan, ATAD2A
  Kd: > 30000 nM
[2]; BROMOscan, BAZ2B
  Kd: > 30000 nM
[3]; BROMOscan, BRD2(1,2)
  Kd: > 30 µM
[4]; BROMOscan, BRD3(1)
  Kd: > 30000 nM
[5]; BROMOscan, BRD3(2)
  Kd: > 30000 nM
[6]; BROMOscan, BRD4(1)
  Kd: 27 µM
[7]; BROMOscan, BRD4(1,2)
  Kd: > 30 µM
[8]; BROMOscan, BRD4(2)
  Kd: > 30 µM
[9]; [17]
  Kd: > 30 µM
[10]; BROMOscan, BRD9
  Kd: > 30000 nM
[11]; BROMOscan, BRDT(1,2)
  Kd: > 30000 nM
[12]; BROMOscan, BRPF1
  Kd: > 30000 nM
[13]; BROMOscan, CREBBP
  Kd: > 30000 nM
[14]; BROMOscan, GCN5L2
  Kd: 23000 nM
[15]; BROMOscan, SMARCA2
  Kd: 49 nM
[16]; BROMOscan, TAF1(2)
  Kd: > 30 µM

## Cc1cc(=O)n(C)c2cc(N3C(=O)CC[C@H](NS(=O)(=O)CC(C)C)[C@H]3c3ccc(Cl)cc3)ccc12 [LP-99]
[1]; ATAD2A
  Kd: > 50000 nM
[2]; BAZ2B
  Kd: > 50000 nM
[3]; BROMOscan, BRD2(1,2)
  Kd: 35 µM
[4]; BROMOscan, BRD3(1)
  Kd: 44000 nM
[5]; BROMOscan, BRD3(2)
  Kd: > 50000 nM
[6]; BROMOscan, BRD4(1)
  Kd: 46 µM
[7]; BROMOscan, BRD4(1,2)
  Kd: 41 µM
[8]; BROMOscan, BRD4(2)
  Kd: 25 µM
[9]; [17]
  Kd: > 50 µM
[11]; BROMOscan, BRDT(1,2)
  Kd: 21000 nM
[12]; BROMOscan, BRPF1
  Kd: 43000 nM
[13]; BROMOscan, CREBBP
  Kd: > 50000 nM
[14]; BROMOscan, GCN5L2
  Kd: > 50000 nM
[15]; BROMOscan, SMARCA2
  Kd: > 50000 nM
[16]; BROMOscan, TAF1(2)
  Kd: > 50 µM

## COc1cc2c(cc1NS(=O)(=O)c1ccc(Br)cc1C)n(C)c(=O)n2C [OF-1]
[1]; ATAD2A
  Kd: > 50000 nM
[2]; BAZ2B
  Kd: 2500 nM
[3]; BRD2(1,2)
  Kd: 5.6 µM
[4]; BRD3(1)
  Kd: 5500 nM
[5]; BRD3(2)
  Kd: 16000 nM
[10]; BRD9
  Kd: 2900 nM
[11]; BRDT(1,2)
  Kd: 11000 nM
[13]; CREBBP
  Kd: 45000 nM
[14]; GCN5L2
  Kd: 6900 nM
[15]; SMARCA2
  Kd: > 50000 nM
[15]; read-out: KD (BROMOscan), sheet prints no unit (nM)
  Kd: > 30000 nM
[16]; TAF1(2)
  Kd: 4.7 µM

## COc1ccc(CCc2nc3cc(-c4c(C)noc4C)ccc3n2C[C@H](C)N2CCOCC2)cc1Cl [SGC-CBP30]
[1]; [18]
  Kd: > 30000 nM
[1]; KD, BROMOscan, ATAD2A
  Kd: > 100000 nM
[2]; [18]
  Kd: > 30000 nM
[2]; KD, BROMOscan, BAZ2B
  Kd: > 100000 nM
[3]
  Kd: 0.65 µM
[4]; KD, BROMOscan, BRD3(1)
  Kd: 740 nM
[5]; KD, BROMOscan, BRD3(2)
  Kd: 2300 nM
[6]
  Kd: 1.1 µM
[7]
  Kd: 3.4 µM
[8]
  Kd: 6.2 µM
[9]
  Kd: 0.587 µM
[10]; KD, BROMOscan, BRD9
  Kd: 6100 nM
[11]; KD, BROMOscan, BRDT(1,2)
  Kd: 3100 nM
[12]; KD, BROMOscan, BRPF1
  Kd: 2400 nM
[14]; [18]
  Kd: > 30000 nM
[14]; KD, BROMOscan, GCN5L2
  Kd: > 100000 nM
[15]; [18]
  Kd: > 30000 nM
[15]; KD, BROMOscan, SMARCA2
  Kd: > 100000 nM
[16]
  Kd: 3.1 µM

## O=C(C=CN1CC2CC1CN2c1ccccn1)c1ccccc1O (stereo not drawn) [PFI-3]
[1]; [18]
  Kd: > 30000 nM
[1]; KD, ATAD2A
  Kd: > 100000 nM
[2]; [18]
  Kd: > 30000 nM
[2]; KD, BAZ2B
  Kd: > 100000 nM
[4]; [18]
  Kd: > 30000 nM
[4]; KD, BRD3(1)
  Kd: > 100000 nM
[5]; [18]
  Kd: > 30000 nM
[5]; KD, BRD3(2)
  Kd: > 100000 nM
[10]; [18]
  Kd: > 30000 nM
[10]; KD, BRD9
  Kd: > 100000 nM
[11]; [18]
  Kd: > 30000 nM
[11]; KD, BRDT(1,2)
  Kd: > 100000 nM
[12]; [18]
  Kd: > 30000 nM
[12]; KD, BRPF1
  Kd: > 100000 nM
[13]; [18]
  Kd: > 30000 nM
[13]; KD, CREBBP
  Kd: > 100000 nM
[14]; [18]
  Kd: > 30000 nM
[14]; KD, GCN5L2
  Kd: > 100000 nM
